Test results: patent US20130012466A1 (priority 2006, published 2013)
Where two headings read alike, the source gives them in different places.

What was measured:
[1] = tested on: mouse mammary normal epithelial control cell line; test: Cytotoxicity assay, normal control cell line
[2] = tested on: ADR-RES; test: Cytotoxicity assay (cell titer-glo and calcein AM), ADR-RES; conditions: NCI/ADR RES, % error in parentheses
[3] = tested on: Hep3B; test: Cytotoxicity assay (cell titer-glo and calcein AM), Hep3B; conditions: Hep 3B, % error in parentheses
[4] = tested on: A549; test: Cytotoxicity assay (cell titer-glo and calcein AM), A549; conditions: A549, % error in parentheses
[5] = tested on: SK-OV-3; test: Cytotoxicity assay (cell titer-glo and calcein AM), SK-OV-3; conditions: SK-OV-3, % error in parentheses
[6] = tested on: Du145; test: Cytotoxicity assay (cell titer-glo and calcein AM), Du145; conditions: Du145, % error in parentheses
[7] = tested on: NCI-H460; test: Cytotoxicity assay (cell titer-glo and calcein AM), NCI-H460; conditions: NCI-H460, % error in parentheses
[8] = tested on: SF-268; test: Cytotoxicity assay (cell titer-glo and calcein AM), SF-268; conditions: SF-268, % error in parentheses
[9] = tested on: MCF7; test: Cytotoxicity assay (cell titer-glo and calcein AM), MCF7
[10] = read-out: Cytotoxicity IC50, NmuMG, CTG, CTG (cell titer-glo) readout, % error in parentheses
[11] = read-out: Cytotoxicity IC50, NmuMG, calcein, calcein AM readout, % error in parentheses
[12] = read-out: Cytotoxicity IC50, NCI/ADR RES, CTG, CTG (cell titer-glo) readout
[13] = read-out: Cytotoxicity IC50, NCI/ADR RES, calcein, calcein AM readout
[14] = read-out: Cytotoxicity IC50, Hep 3B, CTG, CTG (cell titer-glo) readout
[15] = read-out: Cytotoxicity IC50, Hep 3B, calcein, calcein AM readout
[16] = read-out: Cytotoxicity IC50, A549, CTG, CTG (cell titer-glo) readout
[17] = read-out: Cytotoxicity IC50, A549, calcein, calcein AM readout
[18] = read-out: Cytotoxicity IC50, SK-OV-3, CTG, CTG (cell titer-glo) readout
[19] = read-out: Cytotoxicity IC50, SK-OV-3, calcein, calcein AM readout
[20] = read-out: Cytotoxicity IC50, Du145, CTG, CTG (cell titer-glo) readout
[21] = read-out: Cytotoxicity IC50, Du145, calcein, calcein AM readout
[22] = read-out: Cytotoxicity IC50, NCI-H460, CTG, CTG (cell titer-glo) readout
[23] = read-out: Cytotoxicity IC50, NCI-H460, calcein, calcein AM readout
[24] = read-out: Cytotoxicity IC50, SF-268, CTG, CTG (cell titer-glo) readout
[25] = read-out: Cytotoxicity IC50, SF-268, calcein, calcein AM readout
[26] = read-out: Cytotoxicity IC50, MCF7, CTG, CTG (cell titer-glo) readout, % error in parentheses
[27] = read-out: Cytotoxicity IC50, MCF7, calcein, calcein AM readout, % error in parentheses

Compound	IC50 [1, 10]	IC50 [1, 11]	IC50 [2, 12]	IC50 [2, 13]	IC50 [3, 14]	IC50 [3, 15]	IC50 [4, 16]	IC50 [4, 17]	IC50 [5, 18]	IC50 [5, 19]	IC50 [6, 20]	IC50 [6, 21]	IC50 [7, 22]	IC50 [7, 23]	IC50 [8, 24]	IC50 [8, 25]	IC50 [9, 26]	IC50 [9, 27]
COc1cc2c(c(OC)c1OC)-c1ccc(OC)c(=O)cc1C(NC(=O)CN(OC)C1OCC(O)C(O)C1O)CC2 [Col25, L-arabinoside]	5.7 µM	> 10 µM	5.14 µM	5.53 µM	> 10 µM	> 10 µM	5.02 µM	5.26 µM	8.51 µM	2.51 µM	7.4 µM	> 10 µM	4.41 µM	5.78 µM	6.8 µM	4.46 µM	3.02 µM	3.43 µM
COc1cc2c(c(OC)c1OC)-c1ccc(OC)c(=O)cc1[C@@H](NC(=O)CN(OC)[C@@H]1O[C@H](CO)[C@H](O)[C@H](O)[C@H]1NC(C)=O)CC2 [Col28, N-acetyl-D-galactosaminoside]	> 10 µM	9.57 µM	9.95 µM	> 10 µM		> 10 µM	> 10 µM	> 10 µM	5.18 µM	7.32 µM	> 10 µM	> 10 µM	9.76 µM	> 10 µM	5.7 µM	3.56 µM	4.87 µM	6.67 µM
COc1cc2c(c(OC)c1OC)-c1ccc(OC)c(=O)cc1[C@@H](NC(=O)CN(OC)[C@@H]1O[C@H](CO)[C@@H](O)[C@H](F)[C@H]1O)CC2 [Col33, 3-fluoro-3-deoxy-D-glucoside]	5.93 µM	> 10 µM	> 10 µM	> 10 µM	2.67 µM	1.99 µM	2.02 µM	1.87 µM	1.25 µM	1.89 µM	9.6 µM	5.44 µM	4.39 µM	> 10 µM	0.86 µM	2.33 µM	6.64 µM	6.13 µM
COc1cc2c(c(OC)c1OC)-c1ccc(OC)c(=O)cc1C(NC(=O)CN(OC)C1OC(C)C(O)C(O)C1O)CC2 [Col37, L-rhamnoside]	7.72 µM	7.76 µM	4.56 µM	4.48 µM	8.26 µM	9.57 µM	7.07 µM	7.28 µM	5.58 µM	> 10 µM	5.81 µM	4.36 µM	3.72 µM	6.7 µM	4.79 µM	4.68 µM	3.81 µM	1.56 µM
COc1cc2c(c(OC)c1OC)-c1ccc(OC)c(=O)cc1[C@@H](NC(=O)CN(OC)[C@@H]1O[C@H](CCl)[C@H](O)[C@H](O)[C@H]1O)CC2 [Col41, 6-deoxy-6-chloro-D-galactoside]	> 10 µM	9.27 µM	4.97 µM	3.68 µM	8.8 µM	5.99 µM	3.7 µM	1.07 µM	5.61 µM	7.95 µM	6.69 µM	6.74 µM	5.48 µM	2.31 µM	6.93 µM	7.87 µM	3.36 µM	1.85 µM
COc1cc2c(c(OC)c1OC)-c1ccc(OC)c(=O)cc1[C@@H](NC(=O)CN(OC)[C@@H]1O[C@H](CBr)[C@H](O)[C@H](O)[C@H]1O)CC2 [Col42, 6-deoxy-6-bromo-D-galactoside]	2.83 µM	2.92 µM	2.49 µM	2.23 µM	> 10 µM	> 10 µM	3.94 µM	2.64 µM	8.36 µM	> 10 µM	4.47 µM	4.26 µM	4.4 µM	> 10 µM	6.37 µM	3.31 µM	4.9 µM	3.69 µM
COc1cc2c(c(OC)c1OC)-c1ccc(OC)c(=O)cc1[C@@H](NC(=O)CN(OC)[C@@H]1O[C@H](CN=[N+]=[N-])[C@H](O)[C@H](O)[C@H]1O)CC2 [Col43, 6-deoxy-6-azido-D-galactoside]	3.82 µM	3.93 µM	5.04 µM	2.51 µM	5.3 µM	3.89 µM	> 10 µM	> 10 µM	> 10 µM	5.79 µM	4.87 µM	4.19 µM	5.01 µM	2.36 µM	5.15 µM	8.46 µM	4.91 µM	3.68 µM
COc1cc2c(c(OC)c1OC)-c1ccc(OC)c(=O)cc1[C@@H](NC(=O)CN(OC)[C@@H]1O[C@H](CF)[C@@H](O)[C@H](O)[C@H]1O)CC2 [Col54, 6-deoxy-6-fluoro-D-glucoside]	> 10 µM	> 10 µM	> 10 µM	> 10 µM	> 10 µM	4.66 µM	> 10 µM	> 10 µM	> 10 µM	> 10 µM	> 10 µM	> 10 µM	3.82 µM	4.9 µM	> 10 µM	> 10 µM	> 10 µM	> 10 µM
CCCCCCCCCC(=O)NC[C@H]1O[C@@H](N(CC(=O)N[C@H]2CCc3cc(OC)c(OC)c(OC)c3-c3ccc(OC)c(=O)cc32)OC)[C@H](O)[C@@H](O)[C@@H]1O [Col59, 6-deoxy-6-N-decanoyl-D-glucosaminoside]	> 10 µM	8.43 µM	5.16 µM	7.97 µM	5.7 µM	7.36 µM	8.14 µM	> 10 µM	5.08 µM	7.11 µM	5.28 µM	7.09 µM	4.95 µM	5.21 µM	5.53 µM	9.44 µM	5.51 µM	6.19 µM
CCCCCCCCCC(=O)N[C@@H]1[C@@H](O)[C@H](N(CC(=O)N[C@H]2CCc3cc(OC)c(OC)c(OC)c3-c3ccc(OC)c(=O)cc32)OC)O[C@H](CO)[C@H]1O [Col60, 3-deoxy-3-N-decanoyl-D-glucosaminoside]	8.37 µM	6.04 µM	4.98 µM	4.65 µM	4.97 µM	> 10 µM	> 10 µM	> 10 µM	4.38 µM	4.15 µM	4.79 µM	6.2 µM	3.98 µM	5.88 µM	5.03 µM	4.13 µM	3.36 µM	3.04 µM
COc1cc2c(c(OC)c1OC)-c1ccc(OC)c(=O)cc1[C@@H](NC(=O)CN(OC)[C@@H]1O[C@H](CSC(C)=O)[C@H](O)[C@H](O)[C@H]1O)CC2 [Col68, 6-deoxy-6-thio-acyl-D-galactoside]	9.83 µM	9.44 µM	4.88 µM	2.04 µM	5.22 µM	7.92 µM	4.77 µM	7.67 µM	4.5 µM	2.43 µM	4.19 µM	1.73 µM	4.41 µM	3.12 µM	3.85 µM	3.27 µM	2.42 µM	2.54 µM
mycaroside [Col49]	> 10 µM	8.84 µM	5.38 µM	> 10 µM	9.76 µM	> 10 µM	> 10 µM	> 10 µM	> 10 µM	> 10 µM	5.2 µM	8.56 µM	≥ 10 µM	9.31 µM	9.94 µM	7.86 µM	4.38 µM	5.21 µM
